# According to ChEMBL document CHEMBL4024727, “Synthesis and antimycobacterial screening of new thiazolyl-oxazole derivatives” (Eur J Med Chem, 2017):
# Test system: Mycobacterium tuberculosis
# Experiment: Antitubercular activity against Mycobacterium bovis BCG ATCC 35743 dormant stage by nitrate reductase based two-fold dilution assay
# Format: functional
# Details: BCG str. ATCC 35743
SMILES,IC50,MIC90
Cc1nc(-c2ccc(F)cc2)oc1-c1csc(Cc2ccccc2)n1,0.54 µM,7.33 µM

# Test system: Mycobacterium tuberculosis
# Experiment: Growth inhibition of Mycobacterium bovis BCG ATCC 35743 at 10 ug/ml by nitrate reductase based two-fold dilution assay relative to control
# Format: functional
# Details: BCG str. ATCC 35743, read-out: GI
row,SMILES,inhibition of growth at 10 µg/mL
1,Cc1nc(-c2ccc(F)cc2)oc1-c1csc(Cc2ccccc2)n1,96%

# Test system: HeLa
# Experiment: (§1) Growth inhibition of human HeLa cells by MTT assay
# Format: cell-based
# Details: hela
row,SMILES,GI90
1,Cc1nc(-c2ccc(F)cc2)oc1-c1csc(Cc2ccccc2)n1,248.63 µg/mL

# Test system: not listed separately
# Experiment: as §1
# Format: cell-based
# Details: HeLa cells
row,SMILES,GI50
1,Cc1nc(-c2ccc(F)cc2)oc1-c1csc(Cc2ccccc2)n1,148 µg/mL

# Test system: not listed separately
# Experiment: Selectivity index, ratio of GI50 for human HeLa cells to MIC for Mycobacterium bovis BCG ATCC 35743 dormant stage
# Format: toxicity, cell-based
# Details: read-out: Selectivity Index
row,SMILES,selectivity ratio
1,Cc1nc(-c2ccc(F)cc2)oc1-c1csc(Cc2ccccc2)n1,58

# Test system: Mycobacterium tuberculosis
# Experiment: Growth inhibition of Mycobacterium bovis BCG ATCC 35743 at 1 ug/ml by nitrate reductase based two-fold dilution assay relative to control
# Format: functional
# Details: BCG str. ATCC 35743, read-out: GI
row,SMILES,inhibition of growth at 1 µg/mL
1,Cc1nc(-c2ccc(F)cc2)oc1-c1csc(Cc2ccccc2)n1,97%

# Test system: Escherichia coli
# Experiment: Growth inhibition of Escherichia coli NCIM 2576 at 1 ug/ml measured after 8 hrs relative to control
# Format: functional
# Details: NCIM 2576, 8 h, read-out: GI
row,SMILES,inhibition of growth at 1 µg/mL
1,Cc1nc(-c2ccc(F)cc2)oc1-c1csc(Cc2ccccc2)n1,88.8%

# Test system: Escherichia coli
# Experiment: Growth inhibition of Escherichia coli NCIM 2576 at 10 ug/ml measured after 8 hrs relative to control
# Format: functional
# Details: NCIM 2576, 8 h, read-out: GI
row,SMILES,inhibition of growth at 10 µg/mL
1,Cc1nc(-c2ccc(F)cc2)oc1-c1csc(Cc2ccccc2)n1,90.3%

# Test system: not listed separately
# Experiment: Selectivity index, ratio of GI50 for human HeLa cells to MIC for Mycobacterium tuberculosis H37Ra ATCC 25177 dormant stage
# Format: toxicity, cell-based
# Details: read-out: Selectivity Index
row,SMILES,selectivity ratio
1,Cc1nc(-c2ccc(F)cc2)oc1-c1csc(Cc2ccccc2)n1,68

# Test system: Mycobacterium tuberculosis
# Experiment: Growth inhibition of Mycobacterium tuberculosis H37Ra ATCC 25177 at 3 ug/ml by XTT dye based two-fold dilution method relative to control
# Format: functional
# Details: read-out: GI
row,SMILES,inhibition of growth at 3 µg/mL
1,Cc1nc(-c2ccc(F)cc2)oc1-c1csc(Cc2ccccc2)n1,95%

# Test system: not listed separately
# Experiment: Selectivity index, ratio of GI50 for human A549 cells to MIC for Mycobacterium bovis BCG ATCC 35743 dormant stage
# Format: toxicity
# Details: read-out: Selectivity Index
row,SMILES,selectivity ratio
1,Cc1nc(-c2ccc(F)cc2)oc1-c1csc(Cc2ccccc2)n1,97

# Test system: not listed separately
# Experiment: Selectivity index, ratio of GI50 for human PANC1 cells to MIC for Mycobacterium tuberculosis H37Ra ATCC 25177 dormant stage
# Format: toxicity
# Details: PANC-1 cells, read-out: Selectivity Index
row,SMILES,selectivity ratio
1,Cc1nc(-c2ccc(F)cc2)oc1-c1csc(Cc2ccccc2)n1,115

# Test system: Pseudomonas fluorescens
# Experiment: Antibacterial activity against Pseudomonas fluorescens NCIM 2059 measured after 8 hrs
# Format: functional
# Details: NCIM 2059, 8 h
row,SMILES,MIC
1,Cc1nc(-c2ccc(F)cc2)oc1-c1csc(Cc2ccccc2)n1,19.1 µM

# Test system: Mycobacterium tuberculosis
# Experiment: Growth inhibition of Mycobacterium bovis BCG ATCC 35743 at 30 ug/ml by nitrate reductase based two-fold dilution assay relative to control
# Format: functional
# Details: BCG str. ATCC 35743, read-out: GI
row,SMILES,inhibition of growth at 30 µg/mL
1,Cc1nc(-c2ccc(F)cc2)oc1-c1csc(Cc2ccccc2)n1,97%

# Test system: Bacillus subtilis
# Experiment: Growth inhibition of Bacillus subtilis NCIM 2162 at 30 ug/ml measured after 12 hrs relative to control
# Format: functional
# Details: NCIM 2162, 12 h, read-out: GI
row,SMILES,inhibition of growth at 30 µg/mL
1,Cc1nc(-c2ccc(F)cc2)oc1-c1csc(Cc2ccccc2)n1,99.9%

# Test system: not listed separately
# Experiment: Selectivity index, ratio of GI50 for human A549 cells to MIC for Mycobacterium tuberculosis H37Ra ATCC 25177 dormant stage
# Format: toxicity
# Details: read-out: Selectivity Index
row,SMILES,selectivity ratio
1,Cc1nc(-c2ccc(F)cc2)oc1-c1csc(Cc2ccccc2)n1,115

# Test system: Staphylococcus aureus
# Experiment: Growth inhibition of Staphylococcus aureus NCIM 2602 at 30 ug/ml measured after 12 hrs relative to control
# Format: functional
# Details: NCIM 2602, 12 h, read-out: GI
row,SMILES,inhibition of growth at 30 µg/mL
1,Cc1nc(-c2ccc(F)cc2)oc1-c1csc(Cc2ccccc2)n1,98.5%

# Test system: Bacillus subtilis
# Experiment: Growth inhibition of Bacillus subtilis NCIM 2162 at 10 ug/ml measured after 12 hrs relative to control
# Format: functional
# Details: NCIM 2162, 12 h, read-out: GI
row,SMILES,inhibition of growth at 10 µg/mL
1,Cc1nc(-c2ccc(F)cc2)oc1-c1csc(Cc2ccccc2)n1,95.8%

# Test system: Bacillus subtilis
# Experiment: Growth inhibition of Bacillus subtilis NCIM 2162 at 1 ug/ml measured after 12 hrs relative to control
# Format: functional
# Details: NCIM 2162, 12 h, read-out: GI
row,SMILES,inhibition of growth at 1 µg/mL
1,Cc1nc(-c2ccc(F)cc2)oc1-c1csc(Cc2ccccc2)n1,91.2%

# Test system: Escherichia coli
# Experiment: Antibacterial activity against Escherichia coli NCIM 2576 measured after 8 hrs
# Format: functional
# Details: NCIM 2576, 8 h
row,SMILES,MIC
1,Cc1nc(-c2ccc(F)cc2)oc1-c1csc(Cc2ccccc2)n1,20.6 µM

# Test system: Mycobacterium tuberculosis
# Experiment: Antitubercular activity against Mycobacterium tuberculosis H37Ra ATCC 25177 dormant stage by XTT dye based two-fold dilution method
# Format: functional
# Details: not given
SMILES,IC50,MIC90
Cc1nc(-c2ccc(F)cc2)oc1-c1csc(Cc2ccccc2)n1,0.49 µM,6.2 µM

# Test system: Pseudomonas fluorescens
# Experiment: Growth inhibition of Pseudomonas fluorescens NCIM 2059 at 30 ug/ml measured after 8 hrs relative to control
# Format: functional
# Details: NCIM 2059, 8 h, read-out: GI
row,SMILES,inhibition of growth at 30 µg/mL
1,Cc1nc(-c2ccc(F)cc2)oc1-c1csc(Cc2ccccc2)n1,99.6%

# Test system: not listed separately
# Experiment: (§2) Growth inhibition of human A549 cells by MTT assay
# Format: cell-based
# Details: A549 cells
row,SMILES,GI50
1,Cc1nc(-c2ccc(F)cc2)oc1-c1csc(Cc2ccccc2)n1,> 250 µg/mL

# Test system: A549
# Experiment: as §2
# Format: cell-based
# Details: a549
row,SMILES,GI90
1,Cc1nc(-c2ccc(F)cc2)oc1-c1csc(Cc2ccccc2)n1,> 250 µg/mL

# Test system: Staphylococcus aureus
# Experiment: Antibacterial activity against Staphylococcus aureus NCIM 2602 measured after 12 hrs
# Format: functional
# Details: NCIM 2602, 12 h
row,SMILES,MIC
1,Cc1nc(-c2ccc(F)cc2)oc1-c1csc(Cc2ccccc2)n1,6.85 µM

# Test system: PANC-1
# Experiment: (§3) Growth inhibition of human PANC1 cells by MTT assay
# Format: cell-based
# Details: panc-1
row,SMILES,GI90
1,Cc1nc(-c2ccc(F)cc2)oc1-c1csc(Cc2ccccc2)n1,> 250 µg/mL

# Test system: not listed separately
# Experiment: as §3
# Format: cell-based, PANC-1
# Details: PANC-1 cells
row,SMILES,GI50
1,Cc1nc(-c2ccc(F)cc2)oc1-c1csc(Cc2ccccc2)n1,> 250 µg/mL

# Test system: Mycobacterium tuberculosis
# Experiment: Growth inhibition of Mycobacterium tuberculosis H37Ra ATCC 25177 at 10 ug/ml by XTT dye based two-fold dilution method relative to control
# Format: functional
# Details: read-out: GI
row,SMILES,inhibition of growth at 10 µg/mL
1,Cc1nc(-c2ccc(F)cc2)oc1-c1csc(Cc2ccccc2)n1,94%

# Test system: Pseudomonas fluorescens
# Experiment: Growth inhibition of Pseudomonas fluorescens NCIM 2059 at 10 ug/ml measured after 8 hrs relative to control
# Format: functional
# Details: NCIM 2059, 8 h, read-out: GI
row,SMILES,inhibition of growth at 10 µg/mL
1,Cc1nc(-c2ccc(F)cc2)oc1-c1csc(Cc2ccccc2)n1,92.4%

# Test system: Staphylococcus aureus
# Experiment: Growth inhibition of Staphylococcus aureus NCIM 2602 at 1 ug/ml measured after 12 hrs relative to control
# Format: functional
# Details: NCIM 2602, 12 h, read-out: GI
row,SMILES,inhibition of growth at 1 µg/mL
1,Cc1nc(-c2ccc(F)cc2)oc1-c1csc(Cc2ccccc2)n1,93.9%

# Test system: Escherichia coli
# Experiment: Growth inhibition of Escherichia coli NCIM 2576 at 30 ug/ml measured after 8 hrs relative to control
# Format: functional
# Details: NCIM 2576, 8 h, read-out: GI
row,SMILES,inhibition of growth at 30 µg/mL
1,Cc1nc(-c2ccc(F)cc2)oc1-c1csc(Cc2ccccc2)n1,94%

# Test system: Staphylococcus aureus
# Experiment: Growth inhibition of Staphylococcus aureus NCIM 2602 at 10 ug/ml measured after 12 hrs relative to control
# Format: functional
# Details: NCIM 2602, 12 h, read-out: GI
row,SMILES,inhibition of growth at 10 µg/mL
1,Cc1nc(-c2ccc(F)cc2)oc1-c1csc(Cc2ccccc2)n1,95.9%

# Test system: Pseudomonas fluorescens
# Experiment: Growth inhibition of Pseudomonas fluorescens NCIM 2059 at 1 ug/ml measured after 8 hrs relative to control
# Format: functional
# Details: NCIM 2059, 8 h, read-out: GI
row,SMILES,inhibition of growth at 1 µg/mL
1,Cc1nc(-c2ccc(F)cc2)oc1-c1csc(Cc2ccccc2)n1,87%

# Test system: Bacillus subtilis
# Experiment: Antibacterial activity against Bacillus subtilis NCIM 2162 measured after 12 hrs
# Format: functional
# Details: NCIM 2162, 12 h
row,SMILES,MIC
1,Cc1nc(-c2ccc(F)cc2)oc1-c1csc(Cc2ccccc2)n1,5.99 µM

# Test system: Mycobacterium tuberculosis
# Experiment: Growth inhibition of Mycobacterium tuberculosis H37Ra ATCC 25177 at 30 ug/ml by XTT dye based two-fold dilution method relative to control
# Format: functional
# Details: read-out: GI
row,SMILES,inhibition of growth at 30 µg/mL
1,Cc1nc(-c2ccc(F)cc2)oc1-c1csc(Cc2ccccc2)n1,99%

# Test system: not listed separately
# Experiment: Selectivity index, ratio of GI50 for human PANC1 cells to MIC for Mycobacterium bovis BCG ATCC 35743 dormant stage
# Format: toxicity
# Details: PANC-1 cells, read-out: Selectivity Index
row,SMILES,selectivity ratio
1,Cc1nc(-c2ccc(F)cc2)oc1-c1csc(Cc2ccccc2)n1,97
